Test results taken from PMC13494812, “Towards the Targeted Protein Degradation of PRMT1” (Chemmedchem, 2024).

How the values were obtained:
[1] = target: T1, PRMT1 (Homo sapiens, UniProt Q99873); assay: ADMA and MMA levels by Western blot in MCF-7 cells (PRMT1 / Type I PRMT inhibition); format: cell-based; details: 10 μM, 24 h; for change in monomethylation of arginine (MMA): Western blot
T1 construct: endogenous in cells; host or cells: MCF-7
Text: The cells were allowed to adhere overnight.
manufacturer’s instructions.

[2] = test system: MCF-7 cell line; assay: Cytotoxicity seen in the MCF-7 degradation experiment; format: cell-based, human; details: MCF-7 cells, 10 μM, 24 h
[3] = test system: KP-3 line; assay: Cytotoxicity seen in the KP-3 degradation experiment; format: cell-based, human; details: KP-3 cells, 10 μM, 24 h
Procedure: Figure S5. VHL-recruiting PROTACs in two PDAC-derived cell lines. Western blot of PROTAC A-F in two PDAC-derived cell lines at 10 µM. HPAF-II and KP-3 cells were treated with the indicated compounds at 10 µM for 24 h and then harvested for analysis by Western blot. PROTAC E and PROTAC F were cytotoxic in the KP-3 line.
(1 picture or pasted object on this page, not shown here)

[4] = target: T2, NLuc-CRBN fusion protein (Homo sapiens, UniProt Q96SW2); assay: CRBN NanoBRET Target Engagement assay in live MCF-7 cells; format: cell-based; details: 0.5 µM tracer, 2 h, read-out: IC50, half-maximal inhibition of tracer binding to NLuc-CRBN
T2 construct: host or cells: MCF-7

[5] = PROTAC stability in cell culture media; format: in vitro ADME; details: read-out: t1/2 in cell culture media (converted)
Text: A SEM protecting group was employed on the glutarimide ring of CRBN ligand 6. Three CRBN‐recruiting PROTACs were synthesised by the O‐alkylation of PRMT1 ligand 4 with the corresponding linker 8 j–l to give 9 j–l which underwent a subsequent O‐alkylation with SEM‐protected CRBN ligand 12. The removal of the protecting groups was then attempted using acidic conditions. The N‐Boc and THP protecting groups on the PRMT1 ligand were removed however the SEM group on the CRBN ligand was converted to an N‐hydroxymethyl functional group. This group was removed under basic conditions to afford PROTACs J–L (Scheme 3 A). It is documented that the glutarimide ring and the phthalimide group of the CRBN ligand are susceptible to hydrolysis,[50, 51] and the stability of PROTAC L in cell culture media was investigated and found to be short (t1/2=0.9 h). Changing the functional group between the CRBN ligand and linker can affect the susceptibility of the ligand to hydrolysis.[52] PROTAC M was synthesised, which comprised a similar structure as PROTAC L, but with an amino group between the linker and CRBN ligand (Scheme 3 B).

[6] = target: T1, PRMT1; assay: PRMT1 degradation assay by Western blot in MCF-7 cells; format: cell-based; details: 1 and 0.1 μM, 24 h
Text: A sensitive and selective Western blot protocol was validated to investigate the effect of PROTAC treatment on the cellular levels of PRMT1 in the MCF‐7 cell line (Figure S4, ESI†). Derived from a metastatic breast adenocarcinoma, the MCF‐7 cell line has the hormone receptor status that characterises the most frequently diagnosed subtype of breast cancer: ER‐positive, PR‐positive, HER2‐negative.[43, 44] This breast cancer subtype, and consequently the MCF‐7 cell line, are a suitable model system to predict the clinical efficacy of PRMT1 PROTACs; PRMT1 upregulation correlates with a reduction in relapse‐free survival for patients with this breast cancer subtype[6, 45] and anti‐proliferative effects have been observed in the MCF‐7 cell line following pan‐Type I PRMT inhibition.[17, 20]
Figure 3 PRMT1 and PRMT6 degradation assays with VHL‐recruiting PROTACs. […] PROTACs E–F were cytotoxic and not analysed. […]
(§1) Western Blot Cells were counted using the Vi-CELL XR cell viability analyser, as per manufactures instructions, and the desired number of cells seeded in full media in individual 10 cm plates (Corning, #430167). […]
(§2) The pellet was resuspended in RIPA buffer containing protease and phosphatase inhibitor and incubated at 4 °C for 10 minutes with rotation. […] The supernatant was transferred and the protein concentration quantified by the Direct Detect Spectrometer as per manufacturer’s instructions. […]

[7] = target: T3, PRMT6 (Homo sapiens, UniProt Q96LA8); assay: PRMT6 degradation assay by Western blot in MCF-7 cells; format: cell-based; details: 1 and 0.1 μM, 24 h
T3 construct: endogenous in cells; host or cells: MCF-7
Procedure: At 10 μM in the MCF‐7 cell line, PRMT1 degradation was not observed with any of the synthesised PROTACs (Figure 3A). PROTAC E and PROTAC F were cytotoxic and not analysed. […]. PRMT8 is expressed primarily in the brain and thus not investigated.[46]
Figure 3 PRMT1 and PRMT6 degradation assays with VHL‐recruiting PROTACs. A) PROTACs A–I at 10 μM. PROTACs E–F were cytotoxic and not analysed. MCF‐7 cells were treated with the indicated compound for 24 h and then harvested for analysis by Western blot. B) Same as A but PROTACs tested at 1 and 0.1 μM. Image representative of two independent experiments. Uncropped blots are shown in ESI†.
Figure 5 PRMT1 and PRMT6 degradation assays with CRBN‐recruiting PROTACs. A) PROTACs J–O at 10 μM. MCF‐7 cells were treated with the indicated compound for 24 h and then harvested for analysis by Western blot. B) Same as A but PROTAC N tested at 1 and 0.1 μM. […]
as §1, §2

[8] = target: T4, CRBN (Homo sapiens, UniProt Q96SW2); assay: CRBN binding of N-alkylated molecule 7 (Figure S6)
T4 construct: host or cells: MCF-7
Text: To synthesise PROTACs that recruit the CRBN E3‐ligase, PRMT1 ligand 4 underwent a Mitsunobu reaction to produce 5 which was then used for the alkylation of CRBN ligand 6.

T2 sequence (Q16531 whole entry, the tested form may be a part): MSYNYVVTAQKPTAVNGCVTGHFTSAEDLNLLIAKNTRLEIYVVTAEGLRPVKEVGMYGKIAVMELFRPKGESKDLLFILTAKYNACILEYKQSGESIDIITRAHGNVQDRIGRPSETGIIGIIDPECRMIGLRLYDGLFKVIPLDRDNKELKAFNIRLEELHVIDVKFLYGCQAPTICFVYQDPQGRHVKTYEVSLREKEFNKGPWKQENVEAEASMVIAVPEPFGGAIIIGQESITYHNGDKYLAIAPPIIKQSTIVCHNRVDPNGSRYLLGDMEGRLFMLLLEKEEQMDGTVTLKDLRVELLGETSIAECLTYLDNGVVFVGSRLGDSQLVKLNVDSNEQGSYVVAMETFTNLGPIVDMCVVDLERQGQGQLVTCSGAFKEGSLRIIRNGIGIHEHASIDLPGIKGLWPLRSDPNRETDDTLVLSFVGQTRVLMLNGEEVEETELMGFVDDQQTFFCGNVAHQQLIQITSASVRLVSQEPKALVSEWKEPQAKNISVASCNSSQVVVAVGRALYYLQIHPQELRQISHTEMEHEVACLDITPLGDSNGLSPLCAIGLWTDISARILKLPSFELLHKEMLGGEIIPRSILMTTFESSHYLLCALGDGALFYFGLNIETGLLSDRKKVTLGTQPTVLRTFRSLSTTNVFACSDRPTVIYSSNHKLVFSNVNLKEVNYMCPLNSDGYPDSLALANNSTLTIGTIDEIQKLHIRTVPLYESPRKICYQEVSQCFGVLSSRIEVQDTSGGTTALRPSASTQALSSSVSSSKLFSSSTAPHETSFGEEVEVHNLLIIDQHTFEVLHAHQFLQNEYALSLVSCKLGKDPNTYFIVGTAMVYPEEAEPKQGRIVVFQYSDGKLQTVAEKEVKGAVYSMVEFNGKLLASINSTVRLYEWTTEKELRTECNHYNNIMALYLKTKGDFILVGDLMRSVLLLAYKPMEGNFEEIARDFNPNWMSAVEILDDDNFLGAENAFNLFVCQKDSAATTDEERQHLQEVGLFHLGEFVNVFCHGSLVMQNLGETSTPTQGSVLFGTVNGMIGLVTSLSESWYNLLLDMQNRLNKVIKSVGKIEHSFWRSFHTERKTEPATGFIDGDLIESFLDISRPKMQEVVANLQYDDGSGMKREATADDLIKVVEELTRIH
T2 sequence (Q96SW2 whole entry, the tested form may be a part): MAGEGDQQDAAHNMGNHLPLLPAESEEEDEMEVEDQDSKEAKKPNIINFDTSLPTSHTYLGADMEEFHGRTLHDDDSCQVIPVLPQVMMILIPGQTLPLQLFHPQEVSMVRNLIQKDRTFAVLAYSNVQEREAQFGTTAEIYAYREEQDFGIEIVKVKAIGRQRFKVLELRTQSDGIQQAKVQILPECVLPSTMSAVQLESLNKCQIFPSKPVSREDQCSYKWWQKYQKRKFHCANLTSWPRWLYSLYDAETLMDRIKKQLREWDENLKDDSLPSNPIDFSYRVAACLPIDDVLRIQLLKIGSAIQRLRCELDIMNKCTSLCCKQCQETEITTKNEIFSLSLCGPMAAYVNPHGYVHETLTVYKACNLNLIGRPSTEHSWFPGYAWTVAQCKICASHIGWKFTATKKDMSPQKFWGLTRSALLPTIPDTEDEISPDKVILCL
T1 sequence (Q99873 whole entry): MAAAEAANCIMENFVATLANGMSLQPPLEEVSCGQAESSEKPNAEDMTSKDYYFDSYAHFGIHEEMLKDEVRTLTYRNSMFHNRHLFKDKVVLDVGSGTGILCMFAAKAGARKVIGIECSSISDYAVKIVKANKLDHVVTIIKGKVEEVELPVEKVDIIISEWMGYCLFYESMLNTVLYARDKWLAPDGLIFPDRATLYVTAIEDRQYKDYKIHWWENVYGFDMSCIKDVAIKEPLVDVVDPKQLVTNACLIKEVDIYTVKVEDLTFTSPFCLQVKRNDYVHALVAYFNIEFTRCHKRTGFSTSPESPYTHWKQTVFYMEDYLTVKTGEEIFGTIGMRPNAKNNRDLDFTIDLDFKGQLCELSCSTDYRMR
T3 sequence (Q96LA8 whole entry): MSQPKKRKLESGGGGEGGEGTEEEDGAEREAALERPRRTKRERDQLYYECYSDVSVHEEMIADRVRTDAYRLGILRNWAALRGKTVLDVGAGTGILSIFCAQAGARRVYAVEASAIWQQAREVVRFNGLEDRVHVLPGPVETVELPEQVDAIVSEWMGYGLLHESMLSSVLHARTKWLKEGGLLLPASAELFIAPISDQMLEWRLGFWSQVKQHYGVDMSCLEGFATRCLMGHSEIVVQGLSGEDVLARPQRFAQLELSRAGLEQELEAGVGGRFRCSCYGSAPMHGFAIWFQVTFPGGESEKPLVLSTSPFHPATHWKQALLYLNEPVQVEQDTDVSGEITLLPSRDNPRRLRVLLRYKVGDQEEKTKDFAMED
T4 sequence (Q96SW2 whole entry): as the sequence (Q96SW2 whole entry, the tested form may be a part) above
T4 sequence (Q16531 whole entry, further chain): as the sequence (Q16531 whole entry, the tested form may be a part) above

CNCCN(C)Cc1c[nH]nc1-c1ccc(OCCCCCCCC(=O)N[C@H](C(=O)N2C[C@H](O)C[C@H]2C(=O)NCc2ccc(-c3scnc3C)cc2)C(C)(C)C)cc1 [PROTAC C]
change in monomethylation of arginine (MMA) [1]: significant increase

CNCCN(C)Cc1c[nH]nc1-c1ccc(OCCCCCCCCCC(=O)N[C@H](C(=O)N2C[C@H](O)C[C@H]2C(=O)NCc2ccc(-c3scnc3C)cc2)C(C)(C)C)cc1 [PROTAC D]
change in monomethylation of arginine (MMA) [1]: significant increase

CNCCN(C)Cc1c[nH]nc1-c1ccc(OCCCCCCCCCCCC(=O)N[C@H](C(=O)N2C[C@H](O)C[C@H]2C(=O)NCc2ccc(-c3scnc3C)cc2)C(C)(C)C)cc1 [PROTAC E]
cytotoxicity [2]: cytotoxic
cytotoxicity [3]: cytotoxic

CNCCN(C)Cc1c[nH]nc1-c1ccc(OCCCCCCCCCCCCCCCC(=O)N[C@H](C(=O)N2C[C@H](O)C[C@H]2C(=O)NCc2ccc(-c3scnc3C)cc2)C(C)(C)C)cc1 [PROTAC F]
cytotoxicity [2]: cytotoxic
cytotoxicity [3]: cytotoxic

CNCCN(C)Cc1c[nH]nc1-c1ccc(OCCOCCOCCOCCOCCOCCOc2cccc3c2C(=O)N(C2CCC(=O)NC2=O)C3=O)cc1 (stereo not drawn) [PROTAC L]
IC50 [4]: > 10000 nM
half-life [5]: 0.9 h

CNCCN(C)Cc1c[nH]nc1-c1ccc(OCCOCCOCCOCCOCCOCCNc2cccc3c2C(=O)N(C2CCC(=O)NC2=O)C3=O)cc1 (stereo not drawn) [PROTAC M]
IC50 [4]: 1900 nM
half-life [5]: 2.1 h

CNCCN(C)Cc1c[nH]nc1-c1ccc(OCCCCCCNc2cccc3c2C(=O)N(C2CCC(=O)NC2=O)C3=O)cc1 (stereo not drawn) [PROTAC N]
PRMT1 degradation [6]: neither PRMT1 nor PRMT6 degradation was observed
PRMT6 degradation [7]: neither PRMT1 nor PRMT6 degradation was observed
inhibition of PRMT1 activity ([1]; ADMA/MMA Western blot): inhibited PRMT1 activity
IC50 [4]: 200 nM

CNCCN(C)Cc1c[nH]nc1-c1ccc(OCCOCCN2C(=O)CCC(N3C(=O)c4cccc(O)c4C3=O)C2=O)cc1 (stereo not drawn) [compound 7]
CRBN binding [8]: does not bind CRBN
